The record followed here is US9682940B2, “Indazole derivatives useful as CB-1 inverse agonists” (Janssen Pharmaceutica NV, priority 2015, dated 2017).

In test [1] the target is Human CB1R (Cannabanoid receptor 1) (Homo sapiens (Human), UniProt P21554). As to the kind of experiment: CB-1 in vitro cAMP (HTRF) assay in HEK-293 cells. The format is cell-based. To be noted: HEK-293 cells stably transfected with human CB1R, 250 nM Forskolin, mean where tested more than once, read-out: CB-1 (HEK_cAMP) EC50. In a few lines:
(§1)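 HEK-293 cells stably expressing human CB1 or CB2 plated overnight, then tested in HBSS/5 mM HEPES/0.1% BSA with 0.5 mM IBMX and forskolin (1.5 μM working dilution). Intracellular cAMP quantified by competitive HTRF immunoassay (d2-cAMP, cryptate anti-cAMP) against a cAMP standard curve; compounds as 1/3 serial dilutions from 10 mM DMSO stocks.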

Test [2] addresses Human CB2R (Cannabanoid receptor 2) (Homo sapiens (Human), UniProt P34972). Put plainly: CB-2 in vitro cAMP (HTRF) assay in HEK-293 cells. Particulars: HEK-293 cells stably transfected with human CB2R, 250 nM Forskolin, mean where tested more than once, read-out: CB-2 (HEK_cAMP) EC50. The format is cell-based. In a few lines:
as §1

SMILES strings stand for the structures. Bounds are passed on as bounds.

Sequence of Human CB1R (Cannabanoid receptor 1) (P21554 whole entry): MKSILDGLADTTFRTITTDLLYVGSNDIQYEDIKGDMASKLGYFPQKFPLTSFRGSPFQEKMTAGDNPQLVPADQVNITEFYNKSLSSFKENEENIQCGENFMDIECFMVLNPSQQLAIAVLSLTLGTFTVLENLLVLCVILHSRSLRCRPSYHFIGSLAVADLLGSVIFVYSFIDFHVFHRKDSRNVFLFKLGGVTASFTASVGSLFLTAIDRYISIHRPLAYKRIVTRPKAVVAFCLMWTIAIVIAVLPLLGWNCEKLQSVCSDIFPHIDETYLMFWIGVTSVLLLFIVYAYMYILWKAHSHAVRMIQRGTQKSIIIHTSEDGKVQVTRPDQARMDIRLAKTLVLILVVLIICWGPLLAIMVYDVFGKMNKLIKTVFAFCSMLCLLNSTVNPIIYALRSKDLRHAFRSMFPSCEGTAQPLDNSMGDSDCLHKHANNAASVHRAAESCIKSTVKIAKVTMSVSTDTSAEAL
Sequence of Human CB2R (Cannabanoid receptor 2) (P34972 whole entry): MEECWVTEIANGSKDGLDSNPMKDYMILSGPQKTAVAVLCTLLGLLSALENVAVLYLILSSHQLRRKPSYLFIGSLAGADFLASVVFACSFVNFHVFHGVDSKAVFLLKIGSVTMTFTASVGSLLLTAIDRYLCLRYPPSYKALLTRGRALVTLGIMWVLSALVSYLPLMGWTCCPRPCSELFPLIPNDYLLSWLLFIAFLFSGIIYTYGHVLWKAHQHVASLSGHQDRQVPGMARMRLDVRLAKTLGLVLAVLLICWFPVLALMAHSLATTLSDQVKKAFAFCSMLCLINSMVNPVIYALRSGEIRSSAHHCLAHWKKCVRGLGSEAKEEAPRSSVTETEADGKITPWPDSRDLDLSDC

The EC50 is the concentration needed to bring the measured effect to its halfway point. In the case of `NC(=O)c1ccc(N2CCC(c3c4cc(C(c5ccc(Cl)cc5)c5ccc(Cl)cc5)ccc4nn3C3CC3)CC2)cc1` [Compound 194, 4-(4-(5-(bis(4-chlorophenyl)methyl)-2-cyclopropyl-2H-indazol-3-yl)piperidin-1-yl)benzamide], the EC50 in test [1] was 48 nM; in test [2], more than 10000 nM.
Turning to `O=C(O)Cc1ccc(N2CCC(c3n[nH]c4ccc(C(c5ccc(Cl)cc5)c5ccc(Cl)cc5)cc34)CC2)cc1` [Compound 215], the EC50 in test [1] is 2960 nM; in test [2], more than 10000 nM.
For `NC(=O)c1ccccc1S(=O)(=O)N1CCC(Nc2n[nH]c3ccc(C(c4ccc(Cl)cc4)c4ccc(Cl)cc4)cc23)CC1` [Compound 121] the same measures were 375 nM and more than 10000 nM.
For `O=C(O)Cc1ccc(N2CCC(c3c4cc(C(c5ccc(Cl)cc5)c5ccc(Cl)cc5)ccc4nn3C3CC3)CC2)cc1` [Compound 203] the same measures were 53 nM and more than 10000 nM.
For `O=C(O)c1ccc(S(=O)(=O)N2CCC(c3c4cc(C(c5ccc(Cl)cc5)c5ccc(Cl)cc5)ccc4nn3C3CC3)CC2)cc1F` [Compound 200] the same measures were 624 nM and more than 10000 nM.
In the case of `O=C(O)c1ccccc1Cn1nc(N2CCN(S(=O)(=O)C(F)(F)F)CC2)c2cc(C(c3ccc(Cl)cc3)c3ccc(Cl)cc3)ccc21` [Compound 45], the results for the EC50 in test [1] and in test [2] were 941 nM and more than 10000 nM, respectively.
For `CC(C)(C)OC(=O)N1CCC(c2n[nH]c3ccc(C(c4ccc(Cl)cc4)c4ccc(Cl)cc4)cc23)CC1` [Compound 39] the same measures were 144 nM and more than 10000 nM.
Turning to `O=C(O)c1ccc(CN2CCC(c3nn(C4CC4)c4ccc(C(c5ccc(Cl)cc5)c5ccc(Cl)cc5)cc34)CC2)s1` [Compound 254], the EC50 was 16 nM in test [1] and more than 10000 nM in test [2].
On the same counts, the results for `COc1ccc(C(c2ccc(OC)cc2)c2ccc3[nH]nc(C4CCN(S(=O)(=O)C(F)(F)F)CC4)c3c2)cc1` [Compound 67] are 2 nM and 5200 nM.
For `O=C(O)c1ccc(N2CCC(c3nn(C4CC4)c4ccc(C(c5ccc(Cl)cc5)c5ccc(Cl)cc5)cc34)CC2)cc1` [Compound 198] the same measures were 150 nM and more than 10000 nM.
As to `O=S(=O)(N1CCC(c2nn(C3CC3)c3ccc(C(c4ccc(Cl)cc4)c4ccc(Cl)cc4)cc23)CC1)C(F)(F)F` [Compound 275], the EC50 is 24 nM in test [1] and more than 10000 nM in test [2].
`O=C(O)c1ccc(S(=O)(=O)N2CCC(c3n[nH]c4ccc(C(c5ccc(Cl)cc5)c5ccc(Cl)cc5)cc34)CC2)s1` [Compound 261]: the half-maximal effective concentration (EC50) in test [1] is 271 nM; in test [2], 6820 nM.
For `NC(=O)c1ccc(C(c2ccc(Cl)cc2)c2ccc3[nH]nc(C4CCN(S(=O)(=O)C(F)(F)F)CC4)c3c2)cn1` (stereo not drawn) [Compound 253] the same measures were 11 nM and 6930 nM.
Regarding `NC(=O)c1ccc(N2CCC(c3nn(C4CC4)c4ccc(C(c5ccc(Cl)cc5)c5ccc(Cl)cc5)cc34)CC2)cc1` [Compound 189], the results for the EC50 in test [1] and in test [2] were 23 nM and more than 10000 nM, respectively.
For `O=C(O)c1csc(CN2CCC(c3nn(C4CC4)c4ccc(C(c5ccc(Cl)cc5)c5ccc(Cl)cc5)cc34)CC2)c1` [Compound 227] the same measures were 84 nM and more than 10000 nM.
For `O=S(=O)(C(F)F)N1CCC(c2n[nH]c3ccc(C(c4ccc(Cl)cc4)c4ccc(Cl)cc4)cc23)CC1` [Compound 81] the same measures were 7320 nM and more than 10000 nM.
On the same counts, the results for `CCOC(=O)CS(=O)(=O)N1CCC(c2n[nH]c3ccc(C(c4ccc(Cl)cc4)c4ccc(Cl)cc4)cc23)CC1` [Compound 21] are 170 nM and more than 10000 nM.
On to `O=C(O)Cn1nc(C2CCN(S(=O)(=O)C(F)(F)F)CC2)c2cc(C(c3ccc(Cl)cc3)c3ccc(Cl)cc3)ccc21` [Compound 73], for which the EC50 in test [1] is 762 nM; in test [2], more than 10000 nM.
For `CCNC(=O)N1CCC(c2n[nH]c3ccc(C(c4ccc(Cl)cc4)c4ccc(Cl)cc4)cc23)CC1` [Compound 264] the same measures were 199 nM and 4270 nM.
For `NC(=O)c1ccc(CN2CCC(c3n[nH]c4ccc(C(c5ccc(Cl)cc5)c5ccc(Cl)cc5)cc34)CC2)cc1` [Compound 222] the same measures were 163 nM and more than 10000 nM.
On the same counts, the results for `O=C(O)c1cccc(N2CCC(c3nn(C4CC4)c4ccc(C(c5ccc(Cl)cc5)c5ccc(Cl)cc5)cc34)CC2)c1` [Compound 178] are 324 nM and more than 10000 nM.
For `O=C(O)C(=O)N1CCC(c2c3cc(C(c4ccc(Cl)cc4)c4ccc(Cl)cc4)ccc3nn2C2CC2)CC1` [Compound 126], the values for the half-maximal effective concentration (EC50) in test [1] and in test [2] were 617 nM and more than 10000 nM, respectively.
On the same counts, the results for `NC(=O)C(=O)N1CCC(c2c3cc(C(c4ccc(Cl)cc4)c4ccc(Cl)cc4)ccc3nn2C2CC2)CC1` [Compound 138] are 587 nM and more than 10000 nM.
For `NS(=O)(=O)c1ccc(C(=O)N2CCC(c3nn(CCO)c4ccc(C(c5ccc(Cl)cc5)c5ccc(Cl)cc5)cc34)CC2)cc1` [Compound 72] the same measures were 39 nM and more than 10000 nM.
On the same counts, the results for `NC(=O)c1ccc(S(=O)(=O)N2CCC(c3nn(C4CC4)c4ccc(C(c5ccc(Cl)cc5)c5ccc(Cl)cc5)cc34)CC2)cc1` [Compound 95] are 63 nM and 6500 nM.
As for `O=C(O)c1cncc(CN2CCC(c3c4cc(C(c5ccc(Cl)cc5)c5ccc(Cl)cc5)ccc4nn3C3CC3)CC2)c1` [Compound 255, 5-((4-(5-(bis(4-chlorophenyl)methyl)-2-cyclopropyl-2H-indazol-3-yl)piperidin-1-yl)methyl)nicotinic acid], the 50% effective concentration (EC50) is 34 nM in test [1] and more than 10000 nM in test [2].
Turning to `O=C(O)Cc1ccc(N2CCC(c3nn(C4CC4)c4ccc(C(c5ccc(Cl)cc5)c5ccc(Cl)cc5)cc34)CC2)cc1` [Compound 181], the figures for the EC50 in test [1] and in test [2] were 7800 nM and more than 10000 nM, respectively.
On the same counts, the results for `O=S(=O)(c1ccccc1O)N1CCC(c2c3cc(C(c4ccc(Cl)cc4)c4ccc(Cl)cc4)ccc3nn2C2CC2)CC1` [Compound 149, 2-(4-(5-(bis(4-chlorophenyl)methyl)-2-cyclopropyl-2H-indazol-3-yl)piperidin-1-ylsulfonyl)phenol] are 7 nM and more than 10000 nM.
With `O=C(O)c1ccccc1S(=O)(=O)N1CCC(c2n[nH]c3ccc(C(c4ccc(Cl)cc4)c4ccc(Cl)cc4)cc23)CC1` [Compound 34], the EC50 worked out at 6030 nM in test [1] and 7500 nM in test [2].
For `O=C(O)c1cccc(S(=O)(=O)N2CCC(c3nn(CCO)c4ccc(C(c5ccc(Cl)cc5)c5ccc(Cl)cc5)cc34)CC2)c1` [Compound 68] the same measures were 85 nM and more than 10000 nM.
Take `O=C(O)COc1cccc(N2CCC(c3n[nH]c4ccc(C(c5ccc(Cl)cc5)c5ccc(Cl)cc5)cc34)CC2)c1` [Compound 216]: the EC50 is 1280 nM in test [1] and more than 10000 nM in test [2].
On the same counts, the results for `CNC(=O)c1cc(S(=O)(=O)N2CCC(c3c4cc(C(c5ccc(Cl)cc5)c5ccc(Cl)cc5)ccc4nn3C3CC3)CC2)ccc1OC` [Compound 159, 5-(4-(5-(bis(4-chlorophenyl)methyl)-2-cyclopropyl-2H-indazol-3-yl)piperidin-1-ylsulfonyl)-2-methoxy-N-methylbenzamide] are 3 nM and more than 10000 nM.
On the same counts, the results for `O=C(O)c1ccc([C@H](c2ccc(Cl)cc2)c2ccc3[nH]nc(N4CCN(S(=O)(=O)C(F)(F)F)CC4)c3c2)cc1` [Compound 233] are 3550 nM and more than 10000 nM.
For `O=C(O)c1ccc(S(=O)(=O)N2CCC(Nc3n[nH]c4ccc(C(c5ccc(Cl)cc5)c5ccc(Cl)cc5)cc34)CC2)cc1` [Compound 129] the same measures were 203 nM and more than 10000 nM.
In the case of `NC(=O)Cc1cccc(N2CCC(c3nn(C4CC4)c4ccc(C(c5ccc(Cl)cc5)c5ccc(Cl)cc5)cc34)CC2)c1` [Compound 190], the EC50 in test [1] is 1080 nM; in test [2] it was more than 10000 nM.
On the same counts, the results for `O=C(c1nnn[nH]1)N1CCC(c2n[nH]c3ccc(C(c4ccc(Cl)cc4)c4ccc(Cl)cc4)cc23)CC1` [Compound 143] are 1010 nM and more than 10000 nM.
Consider `O=C(O)c1cccc(CN2CCC(c3nn(C4CC4)c4ccc(C(c5ccc(F)cc5)c5ccc(Cl)cc5)cc34)CC2)c1` (stereo not drawn) [Compound 246], for which the results for the EC50 in test [1] and in test [2] were 29 nM and more than 10000 nM, respectively.
As for `O=C(O)CS(=O)(=O)N1CCC(c2c3cc(C(c4ccc(Cl)cc4)c4ccc(Cl)cc4)ccc3nn2C2CC2)CC1` [Compound 131], the EC50 in test [1] is 9500 nM; in test [2], more than 10000 nM.
Consider `COC(=O)c1cccc(CN2CCC(c3n[nH]c4ccc(C(c5ccc(Cl)cc5)c5ccc(Cl)cc5)cc34)CC2)c1` [Compound 259], for which the values for the EC50 in test [1] and in test [2] were 374 nM and more than 42000 nM, respectively.
On to `NC(=O)c1ccc(C(=O)N2CCC(c3c4cc(C(c5ccc(Cl)cc5)c5ccc(Cl)cc5)ccc4nn3C3CC3)CC2)cc1` [Compound 114], for which the EC50 came out at 283 nM in test [1] and 9900 nM in test [2].
Take `NC(=O)Cc1ccc(N2CCC(c3n[nH]c4ccc(C(c5ccc(Cl)cc5)c5ccc(Cl)cc5)cc34)CC2)cc1` [Compound 223]: the EC50 in test [1] was 699 nM; in test [2] it was more than 10000 nM.
On the same counts, the results for `NC(=O)c1ccc(S(=O)(=O)N2CCC(c3c4cc(C(c5ccc(Cl)cc5)c5ccc(Cl)cc5)ccc4nn3C3CC3)CC2)o1` [Compound 172, 5-(4-(5-(bis(4-chlorophenyl)methyl)-2-cyclopropyl-2H-indazol-3-yl)piperidin-1-ylsulfonyl)furan-2-carboxamide] are 3 nM and more than 10000 nM.
